Each compound was assayed against T1, rat CB2 receptor (rCB2) (Rattus norvegicus, UniProt Q9QZN9).
T1 sequence (Q9QZN9 1-360): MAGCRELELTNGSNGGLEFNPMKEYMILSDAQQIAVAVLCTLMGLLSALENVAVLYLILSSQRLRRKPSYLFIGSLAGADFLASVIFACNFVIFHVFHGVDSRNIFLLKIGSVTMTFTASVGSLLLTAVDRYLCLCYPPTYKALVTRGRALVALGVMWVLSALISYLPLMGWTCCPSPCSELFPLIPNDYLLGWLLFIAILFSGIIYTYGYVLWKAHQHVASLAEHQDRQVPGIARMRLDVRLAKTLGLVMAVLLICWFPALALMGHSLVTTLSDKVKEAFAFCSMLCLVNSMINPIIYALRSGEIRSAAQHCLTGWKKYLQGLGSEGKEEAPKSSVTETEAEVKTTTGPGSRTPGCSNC

**Q.** CNC(=O)[C@@H](NC(=O)c1nc(-c2ccccc2)n2c1CN(S(=O)(=O)c1ccccc1F)CC2)C(C)(C)C [Compound 98, (S)-N-(3,3-dimethyl-1-(methylamino)-1-oxobutan-2-yl)-7-(2-fluorophenylsulfonyl)-3-phenyl-5,6,7,8-tetrahydroimidazo[1,5-a]pyrqazine-1-carboxamide] was tested. Which EC50 did it give?
**A.** Its EC50 is 10 to 100 nM.

**Q.** With CNC(=O)[C@@H](NC(=O)c1nc(-c2ccccc2)n2c1CN(C(=O)C(C)C)CC2)C(C)(C)C [Compound 191, (S)-N-(3,3-dimethyl-1-(methylamino)-1-oxobutan-2-yl)-7-isobutyryl-3-phenyl-5,6,7,8-tetrahydroimidazo[1,5-a]pyrazine-1-carboxamide] as the compound, how does the EC50 read?
**A.** The EC50 was 10 to 100 nM.

**Q.** For COC(=O)[C@@H](NC(=O)c1nc(-c2ccc(C)cc2F)n2c1CNCCC2)C(C)(C)C [Compound 466], which EC50 is on record?
**A.** Its EC50 is 10 to 100 nM.

**Q.** Which EC50 does the source give for CC(C)(C)OC(=O)N1CCn2c(-c3ccccc3)nc(C(=O)NC3CCCCC3)c2C1 [Compound 36, tert-butyl 1-(cyclohexylcarbamoyl)-3-phenyl-5,6-dihydroimidazo[1,5-a]pyrazine-7(8H)-carboxylate] here?
**A.** The EC50 was 10 to 100 nM.

**Q.** Which EC50 does the source give for Cc1noc([C@@H](NC(=O)c2nc(-c3ccccc3)n3c2CN(C)CC3)C(C)(C)C)n1 [Compound 87, (S)-N-(2,2-dimethyl-1-(3-methyl-1,2,4-oxadiazol-5-yl)propyl)-7-methyl-3-phenyl-5,6,7,8-tetrahydroimidazo[1,5-a]pyrazine-1-carboxamide] here?
**A.** Its EC50 is 10 to 100 nM.

**Q.** With CNC(=O)[C@@H](NC(=O)c1nc(C2=CCC(C)CC2)n2c1CN(C)CC2)C(C)(C)C (stereo partly drawn) [Compound 270, N-((S)-3,3-dimethyl-1-(methylamino)-1-oxobutan-2-yl)-7-methyl-3-(4-methylcyclohex-1-enyl)-5,6,7,8-tetrahydroimidazo[1,5-a]pyrazine-1-carboxamide] as the compound, how does the EC50 read?
**A.** The EC50 was 10 to 100 nM.

**Q.** CNC(=O)[C@@H](NC(=O)c1nc(-c2ccccc2)n2c1CN(Cc1cccn1C)CC2)C(C)(C)C [Compound 71, (S)-N-(3,3-dimethyl-1-(methylamino)-1-oxobutan-2-yl)-7-((1-methyl-1H-pyrrol-2-yl)methyl)-3-phenyl-5,6,7,8-tetrahydroimidazo[1,5-a]pyrazine-1-carboxamide] was tested. Which EC50 did it give?
**A.** Its EC50 is 10 to 100 nM.

**Q.** For CCN1CCn2c(-c3ccc(Cl)cc3)nc(C(=O)NCCC(C)C)c2C1 [Compound 158, 3-(4-chlorophenyl)-7-ethyl-N-isopentyl-5,6,7,8-tetrahydroimidazo[1,5-a]pyrazine-1-carboxamide], which EC50 is on record?
**A.** The EC50 was 10 to 100 nM.

**Q.** With CC(C)CN1CCn2c(-c3ccc(Cl)cc3)nc(C(=O)N[C@H](CO)C(C)(C)C)c2C1 [Compound 160, (S)-3-(4-chlorophenyl)-N-(1-hydroxy-3,3-dimethylbutan-2-yl)-7-isobutyl-5,6,7,8-tetrahydroimidazo[1,5-a]pyrazine-1-carboxamide] as the compound, how does the EC50 read?
**A.** The EC50 was 0.1 to 10 nM.

**Q.** CC(C)CN1CCn2c(-c3ccccc3)nc(C(=O)Nc3ccccc3)c2C1 [Compound 150, 7-isobutyl-N,3-diphenyl-5,6,7,8-tetrahydroimidazo[1,5-a]pyrazine-1-carboxamide] was tested. Which EC50 did it give?
**A.** The EC50 was 10 to 100 nM.

**Q.** How did the EC50 turn out when C[C@@H](NC(=O)c1nc(-c2ccccc2)n2c1CN(C(=O)C1CCOC1)CC2)C1CCCCC1 (stereo partly drawn) [Compound 139, N-((R)-1-cyclohexylethyl)-3-phenyl-7-(tetrahydrofuran-3-carbonyl)-5,6,7,8-tetrahydroimidazo[1,5-a]pyrazine-1-carboxamide] was run?
**A.** The EC50 was 10 to 100 nM.

**Q.** With CNC(=O)[C@@H](NC(=O)c1nc(-c2cc(C)ccc2F)n2c1CN(C)CC2)C(C)(C)C [Compound 251, (S)-N-(3,3-dimethyl-1-(methylamino)-1-oxobutan-2-yl)-3-(2-fluoro-5-methylphenyl)-7-methyl-5,6,7,8-tetrahydroimidazo[1,5-a]pyrazine-1-carboxamide] as the compound, how does the EC50 read?
**A.** The EC50 was 10 to 100 nM.

**Q.** With Cc1noc([C@@H](NC(=O)c2nc(-c3ccccc3)n3c2CN(CC2CC2)CC3)C(C)(C)C)n1 [Compound 88, (S)-7-(cyclopropylmethyl)-N-(2,2-dimethyl-1-(3-methyl-1,2,4-oxadiazol-5-yl)propyl)-3-phenyl-5,6,7,8-tetrahydroimidazo[1,5-a]pyrazine-1-carboxamide] as the compound, how does the EC50 read?
**A.** Its EC50 is 10 to 100 nM.

**Q.** How did the EC50 turn out when Cc1ccc(-c2nc(C(=O)N[C@H](c3nc(C)no3)C(C)(C)C)c3n2CCCN(C)C3)c(F)c1 [Compound 522, (S)-N-(2,2-dimethyl-1-(3-methyl-1,2,4-oxadiazol-5-yl)propyl)-3-(2-fluoro-4-methylphenyl)-8-methyl-6,7,8,9-tetrahydro-5H-imidazo[1,5-a][1,4]diazepine-1-carboxamide] was run?
**A.** Its EC50 is 10 to 100 nM.

**Q.** With CC(C)(C)OC(=O)N1CCn2c(-c3ccc(Cl)cc3)nc(C(=O)N[C@H](CO)C(C)(C)C)c2C1 (stereo in doubt) [Compound 34, tert-butyl 3-(4-chlorophenyl)-1-(1-hydroxy-3,3-dimethylbutan-2-ylcarbamoyl)-5,6-dihydroimidazo[1,5-a]pyrazine-7(8H)-carboxylate] as the compound, how does the EC50 read?
**A.** Its EC50 is 10 to 100 nM.

**Q.** For CNC(=O)[C@@H](NC(=O)c1nc(-c2ccccc2)n2c1CN(CCC(C)(C)C)CC2)C(C)(C)C [Compound 54, (S)-N-(3,3-dimethyl-1-(methylamino)-1-oxobutan-2-yl)-7-(3,3-dimethylbutyl)-3-phenyl-5,6,7,8-tetrahydroimidazo[1,5-a]pyrazine-1-carboxamide], which EC50 is on record?
**A.** Its EC50 is 10 to 100 nM.

**Q.** With CNC(=O)[C@@H](NC(=O)c1nc(-c2ccccc2)n2c1CN(S(=O)(=O)c1ccc(F)cc1)CC2)C(C)(C)C [Compound 93, (S)-N-(3,3-dimthyl-1-(methylamino)-1-oxobutan-2-yl)-7-(4-fluorophenylsulfonyl)-3-phenyl-5,6,7,8-tetrahydroimidazo[1,5-a]pyrazine-1-carboxamide] as the compound, how does the EC50 read?
**A.** Its EC50 is 10 to 100 nM.

**Q.** Which EC50 does the source give for CNC(=O)[C@@H](NC(=O)c1nc(-c2ccc(Cl)cc2F)n2c1CN(C)CC2)C(C)(C)C [Compound 241, (S)-3-(4-chloro-2-fluorophenyl)-N-(3,3-dimethyl-1-(methylamino)-1-oxobutan-2-yl)-7-methyl-5,6,7,8-tetrahydroimidazo[1,5-a]pyrazine-1-carboxamide] here?
**A.** The EC50 was 0.1 to 10 nM.

**Q.** CNC(=O)[C@@H](NC(=O)c1nc(-c2ccccc2)n2c1CN(CC1CC1)CC2)C(C)(C)C [Compound 56, (S)-7-(cyclopropylmethyl)-N-(3,3-dimethyl-1-(methylamino)-1-oxobutan-2-yl)-3-phenyl-5,6,7,8-tetrahydroimidazo[1,5-a]pyrazine-1-carboxamide] was tested. Which EC50 did it give?
**A.** The EC50 was 10 to 100 nM.

**Q.** Which EC50 does the source give for C[C@@H](NC(=O)c1nc(-c2ccccc2)n2c1CN(C(=O)OC(C)(C)C)CC2)C1CCCCC1 [Compound 37, (R)-tert-butyl 1-(1-cyclohexylethylcarbamoyl)-3-phenyl-5,6-dihydroimidazo[1,5-a]pyrazine-7(8H)-carboxylate] here?
**A.** Its EC50 is 10 to 100 nM.

**Q.** CNC(=O)[C@@H](NC(=O)c1nc(-c2cccc(C(F)(F)F)c2)n2c1CNCC2)C(C)(C)C [Compound 3, (S)-N-(3,3-dimethyl-1-(methylamino)-1-oxobutan-2-yl)-3-(3-(trifluoromethyl)phenyl)-5,6,7,8-tetrahydroimidazo[1,5-a]pyrazin-1-carboxamide] was tested. Which EC50 did it give?
**A.** The EC50 was 10 to 100 nM.

**Q.** For C[C@@H](NC(=O)c1nc(-c2ccccc2)n2c1CN(C(=O)C(C)(C)C)CC2)C1CCCCC1 [Compound 133, (R)-N-(1-cyclohexylethyl)-3-phenyl-7-pivaloyl-5,6,7,8-tetrahydroimidazo[1,5-a]pyrazine-1-carboxamide], which EC50 is on record?
**A.** Its EC50 is 10 to 100 nM.

**Q.** How did the EC50 turn out when CCN1CCn2c(-c3ccc(Cl)cc3)nc(C(=O)N[C@H](CO)C(C)(C)C)c2C1 [Compound 161, (S)-3-(4-chlorophenyl)-7-ethyl-N-(1-hydroxy-3,3-dimethylbutan-2-yl)-5,6,7,8-tetrahydroimidazo[1,5-a]pyrazine-1-carboxamide] was run?
**A.** The EC50 was 10 to 100 nM.

**Q.** With CNC(=O)[C@@H](NC(=O)c1nc(-c2ccccc2)n2c1CN(S(=O)(=O)c1ccc(Cl)cc1)CC2)C(C)(C)C [Compound 106, (S)-7-(4-chlorophenylsulfonyl)-N-(3,3-dimethyl-1-(methylamino)-1-oxobutan-2-yl)-3-phenyl-5,6,7,8-tetrahydroimidazo[1,5-a]pyrazine-1-carboxamide] as the compound, how does the EC50 read?
**A.** Its EC50 is 10 to 100 nM.

**Q.** For CC(C)(C)CNC(=O)c1nc(-c2ccccc2)n2c1CN(S(=O)(=O)c1ccc(F)cc1)CC2 [Compound 103, 7-(4-fluorophenylsulfonyl)-N-neopentyl-3-phenyl-5,6,7,8-tetrahydroimidazo[1,5-a]pyrazine-1-carboxamide], which EC50 is on record?
**A.** The EC50 was 10 to 100 nM.

**Q.** CC(C)CN1CCn2c(-c3ccccc3)nc(C(=O)N[C@H](CO)C(C)(C)C)c2C1 [Compound 60, (S)-N-(1-hydroxy-3,3-dimethylbutan-2-yl)-7-isobutyl-3-phenyl-5,6,7,8-tetrahydroimidazo[1,5-a]pyrazine-1-carboxamide] was tested. Which EC50 did it give?
**A.** The EC50 was 10 to 100 nM.

**Q.** CC(C)CN1CCn2c(-c3ccccc3)nc(C(=O)N[C@@H](CO)C(C)(C)C)c2C1 [Compound 68, (R)-N-(1-hydroxy-3,3-dimethylbutan-2-yl)-7-isobutyl-3-phenyl-5,6,7,8-tetrahydroimidazo[1,5-a]pyrazine-1-carboxamide] was tested. Which EC50 did it give?
**A.** The EC50 was 0.1 to 10 nM.

**Q.** How did the EC50 turn out when CNC(=O)[C@@H](NC(=O)c1nc(-c2ccc(Cl)cc2F)n2c1CN(C(=O)OC(C)(C)C)CCC2)C(C)(C)C [Compound 313] was run?
**A.** The EC50 was 10 to 100 nM.

**Q.** With CC(C)CN1CCn2c(-c3ccccc3)nc(C(=O)N[C@@H](C)c3ccccc3)c2C1 [Compound 145, (S)-7-isobutyl-3-phenyl-N-(1-phenylethyl)-5,6,7,8-tetrahydroimidazo[1,5-a]pyrazine-1-carboxamide] as the compound, how does the EC50 read?
**A.** Its EC50 is 10 to 100 nM.

**Q.** How did the EC50 turn out when Cc1ccc(-c2nc(C(=O)N[C@H](c3nc(C)no3)C(C)(C)C)c3n2CCCN(C(C)C)C3)c(F)c1 [Compound 523, (S)-N-(2,2-dimethyl-1-(3-methyl-1,2,4-oxadiazol-5-yl)propyl)-3-(2-fluoro-4-methylphenyl)-8-isopropyl-6,7,8,9-tetrahydro-5H-imidazo[1,5-a][1,4]diazepine-1-carboxamide] was run?
**A.** Its EC50 is 10 to 100 nM.

— patent publication US8431565B2 (priority 2007, dated 2013)
